pEC50, pIC50: −log10 of the molar value. Where a name gives a salt, the structure may show the parent alone. Read-outs that look alike come from different tables or passages of the source.
Columns and labels:
FS MUC1 = assay: Automated fixation/staining imaging assay, FS MUC1 spot cytoplasm (Example 3); type: cell-based; conditions: 48 hour treatment time; for FS MUC1 Spot Cytoplasm Avg Emax: in % (unit assumed)
Excerpt: (§1) Prepared Renal Life Media by adding the supplements provided in the kit, substituting the FBS provided with Tet system approved FBS, and filtering the media (not including provided kit antibiotics). Thawed P6 vial(s) into T175 flasks 2 weeks prior to screening. Cells have to be passaged at least once after thaw before they can be used for screening. Hyperflasks can be used depending on the cell number needed. One confluent T175 flask should give at least 25 million cells. Cells should not be split beyond 1:2-1:4 and should only be trypsinized 1×/week. Cells must be spun down after each typsinization. Flasks must be confluent at time of plating. Flasks were incubated at 37° C., 5% CO2, 98% humidity. Cells can only be cultured for up to 10 passages before a new vial will need to be thawed.
(§2) • Day 1: Cells are plated. • Day 2: Compounds are transferred into assay plates with Echo (24 hours post-seeding) • Day 3: Begin preparing reagents for fixation and staining. • Day 4: Plates are fixed and stained (48 hour treatment time) on automated system and subsequently imaged on Opera Phenix. • Day 5: Data analysis and reporting is performed. Plate Preparation:
(§3) Calculated cell number needed and media volume needed for the run (MAX 20 plates/run). Cells were seeded into Synthemax-coated 384-well Cell Carrier plates at a density of 12,000 cells/well in 40 ul of Renal Life Media/well. Calculated for an extra 2-3 plate volumes to account for volume needed to fill the Combi cassette lines and left dead volume of cell suspension. (20 ul added with Combi after compound addition for total 60 ul assay volume, due to volume constraints of Echo transfer process). Trypsinized cells with 3 ml/T175 flask of TrypLE™ Express Enzyme 1X. Then spun down cells and resuspend in 10 ml media. Counted the cells using Nexcelom Cellometer K2. Prepared a mixture of 20 ul cell suspension/20 ul Cellometer AOPI Stain (#CS2-0106) and then add 20 ul of the 2 fold diluted mixture onto a Cellometer slide. Counted the cells by using the Dual Stain option and following the prompts. Recorded the live cell density, viability, and current passage number and date in notebook. Used the live cell density in calculating how to prepare the cell seeding suspension. Mixed the cell suspension thoroughly but gently. Once Combi cassette cleaned and cell suspension was made, dispensed 40 ul of cell suspension per well into the Synthemax-coated Cell Carrier assay plates. Immediately after seeding, stored the assay plates in the Liconic Incubator on the enclosed system in the 3100 automation lab, spaced plates out every other slot in stackers to maximize air flow.
(§4) Generated Arxspan Run ID to record compound transfer in CBIP. Spun down compound plates and assay plates 2000 RPM 10 sec. Load assay plates into Echo system incubator. Coordinated plate locations and record RUN ID with automation team member. Ran protocol for 100 nl transfer according to designated plate layout/template. When run was completed, added 20 ul of media/well for all assay plates with Combi in hood in Tissue culture room. Returned plates to the incubator in the enclosed system for 48 hour treatment time.
(§5) Heated up solution (100° C. on stir plate) and dissolved Roche Blocking reagent by stirring. The resulting solution was cloudy. Stored at 4° C. and used within one week or froze aliquots at −20° C. Combi 4: 1° Antibody Cocktail: Prepared the day of experiment. Swirled to mix. […] Prepared solution in Corning 250 ml conical flask and covered with tinfoil to protect from light.
(§6) Combi 5: 2° Antibody Cocktail: Prepared the day of experiment. Swirlrf to mix. […] Prepared solution in Corning 250 ml conical flask and covered with tinfoil to protect from light.
(§7) Removed media using BioTek plate washer. (PEKASP62) Moved plates to Combi. Combi 1. Dispensed 40 μl of 4% PFA (Combi on MEDIUM Speed). Incubated plates 20 minutes. Washed two times on BioTek plate washer. (PEK26X2)
(§8) Moved plates to Combi. Combi 2. […]

NUCB1 = assay: Automated fixation/staining imaging assay, NUCB1 intensity (Example 3); type: cell-based; conditions: 48 hour treatment time; for NUCB1 Intensity Avg Emax: in % (unit assumed)
Excerpt: as §1, §2, §3, §4, §5, §6, §7, §8

MUC1-fs = assay: Immunofluorescence imaging of MUC1-fs in P cells (Example 2); type: cell-based; conditions: for pEC50: 48 hr incubation, MUC1-fs; for ECMax (%): DMSO = 0, JQ1 (250 nM) = −100% activity
Summary of the method: (§9)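 P cells were treated for 48 h with 5-dose (35–0.0035 μM) or 10-dose (16–0.0008 μM) series, in duplicate. Fixed cells were immunostained for MUC1-fs, MUC1-wt, GM130 and Hoechst nuclei. Per-cell cytoplasmic intensity was normalized with DMSO as 0% and JQ1 (250 nM) as −100%; cell number was normalized to DMSO.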

MUC1-wt = assay: Immunofluorescence imaging of MUC1-wt in P cells (Example 2); type: cell-based; conditions: for pEC50: 48 hr incubation, MUC1-wt; for WT ECMax (%): DMSO = 0, JQ1 (250 nM) = −100% activity
Summary of the method: as §9

P cells = assay: in vitro cellular potency of TA compounds determined in P cells; type: cell-based
[1] = Test agent stability on storage; type: physicochemical; conditions: storage 4° C.; refrigerated and room temperature
[2] = 48 hr, DMSO = 0, JQ1 = −100% activity, in %

pIC50 (FS MUC1) | pEC50 (MUC1-fs; read-out: EC50(Spot)) | pEC50 (MUC1-wt; read-out: WT EC50 (Cytoplasm)) | pEC50 (P cells) | pEC50 (NUCB1) | pEC50 (MUC1-fs; read-out: EC50) | pEC50 (MUC1-wt; read-out: WT EC50) | Structure (SMILES) | FS MUC1 Spot Cytoplasm Avg Emax (FS MUC1) | NUCB1 Intensity Avg Emax (NUCB1) | ECMax (%) (MUC1-fs; 48 hr) | WT ECMax (%) (MUC1-wt; 48 hr) | Stability/expiration date [1] | Emax (MUC1-fs; [2]) | WT EMax (MUC1-wt; [2])
5.07 | – | – | – | – | – | – | C[C@]1(N)C[C@H]2CC[C@@H]1C2 (single isomer, unassigned) [Compound 253] | −52.28 | −21.51 | – | – | – | – | –
– | 7.30 | 5.57 | 7.40 | – | – | – | CC[C@@]1(C)[C@H]2CC[C@H](C2)[C@H]1N (single isomer, unassigned) [Compound 203-P1] | – | – | −76.02 | 91.48 | Stable when refrigerated and at room temperature for few hours | – | –
5.53 | – | – | – | 4.84 | – | – | CC(C)[C@H]1[C@@H]2CC[C@@H](C2)[C@]1(C)N (single isomer, unassigned) [Compound 259] | −59.03 | −53 | – | – | – | – | –
– | 7.40 | 5.39 | 7.59 | – | – | – | CC[C@]1(C)[C@H]2CC[C@H](C2)[C@H]1N (single isomer, unassigned) [Compound 202-P1] | – | – | −77.14 | ~150 | Stable when refrigerated and at room temperature for few hours | – | –
– | 7.40 | 5.59 | 7.34 | – | – | – | CC[C@]1(C)[C@@H]2CC[C@@H](C2)[C@@H]1N (single isomer, unassigned) [Compound 203-P2] | – | – | −75 | 95 | Stable when refrigerated and at room temperature for few hours | – | –
5.23 | – | – | – | 5.01 | – | – | CC(C)[C@@H]1[C@@H]2CC[C@@H](C2)[C@]1(C)N (single isomer, unassigned) [Compound 258] | −67.73 | −89.37 | – | – | – | – | –
5.61 | – | – | – | 5.31 | 5.61 | < 4.80 | CC1(C)[C@H]2CC[C@H](C2)[C@@]1(C)N (racemic) [Compound 242, rac-2,3,3-trimethylbicyclo[2.2.1]heptan-2-amine hydrochloride] | −67.4 | −85.46 | – | – | – | −67.4 | 27.7
– | 7.70 | < 5.74 | 7.85 | – | – | – | CC[C@@]1(C)[C@@H]2CC[C@@H](C2)[C@@H]1N (single isomer, unassigned) [Compound 202-P2] | – | – | −76 | ~175 | Stable when refrigerated and at room temperature for few hours | – | –
